Where “and” joins values, the source holds several entries; their conditions need not be identical. Equal entries are not always repeated.
How the values were obtained:
[1] = target: T1, P2X4 (Homo sapiens, UniProt Q99571); assay: Assay A: human P2X4 receptor cell line, FLIPR calcium assay (Fluo-8, agonist Bz-ATP at EC80); format: cell-based; parameters: host or cells: HEK 293 (recombinant, constitutively expressing; with mitochondrial photina in Assay B); details: HEK human P2X4 cells, Fluo-8 FLIPR; for IC50: Bz-ATP at EC80, average values; for Emax: percentage of maximal inhibition, read-out: human P2X4 Assay A avg Efficacy
T1 sequence (Q99571 1-388): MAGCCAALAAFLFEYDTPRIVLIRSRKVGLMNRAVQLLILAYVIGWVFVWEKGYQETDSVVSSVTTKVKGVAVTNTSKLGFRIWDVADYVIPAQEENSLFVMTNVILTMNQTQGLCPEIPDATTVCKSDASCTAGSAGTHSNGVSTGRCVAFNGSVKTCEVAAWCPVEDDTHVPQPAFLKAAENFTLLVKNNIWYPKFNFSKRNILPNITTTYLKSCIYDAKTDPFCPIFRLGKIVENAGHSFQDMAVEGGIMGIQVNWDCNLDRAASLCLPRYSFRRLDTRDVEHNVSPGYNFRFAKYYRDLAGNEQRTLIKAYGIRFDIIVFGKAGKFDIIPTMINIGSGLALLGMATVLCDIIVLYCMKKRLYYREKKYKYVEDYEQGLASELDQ
Description: A fluorescent imaging plate reader (FLEX/FLIPR station; Molecular Devices) was used to monitor intracellular calcium levels using the calcium-chelating dye Fluo-8 (Molecular Probes). […] Cells expressing purinergic receptors human P2X4 (HEK human P2X4: PerkinElmer, Product No.: AX-015-PCF) were plated at a density of 20,000 cells/well in poly-D-lysine-coated 384-well plates approximately 20 hours before beginning the assay. On the day of the assay, the medium was removed and 30 μl of dye buffer (Hank's balanced salt solution, 10 mM HEPES, 1.8 mM CaCl2), 1 mM MgCl2, 2 mM probenecid, 5 mM D-glucose monohydrate, 5 μM Fluo-8, pH=7.4) was added for 30 min at […] and 5% CO2. The antagonist in probenecid buffer (Hank's balanced salt solution, 10 mM HEPES, 1.8 mM CaCl2, 1 mM MgCl2, 2 mM probenecid, 5 mM D-glucose monohydrate, pH=7.4) was added in a volume of 10 μl and allowed to incubate for 30 min at room temperature. The final assay DMSO concentration is 0.5%. The agonist, Bz-ATP, is added in a volume of 10 μl at a concentration representing the EC80 value. The fluorescence was measured for an interval of 120 sec at 2 sec intervals and analyzed based on the increase in peak relative fluorescence units (RFU) compared to the basal fluorescence. Peak fluorescence was used to determine the response to agonist obtained at each concentration of antagonist by the following equation:
% Response=100*(RFU(drug)−RFU(control))/(RFU(DMSO)−RFU(control))
The compounds were tested in triplicates per plate and mean values were plotted in Excel XLFit to determine IC50 values, percentage of maximal inhibition and the Hill coefficients.

[2] = target: T1, P2X4; assay: Assay B: human P2X4 receptor cell line, mitochondrial photina luminescence (agonist Bz-ATP at EC50); format: cell-based; parameters: host or cells: HEK 293 (recombinant, constitutively expressing; with mitochondrial photina in Assay B); details: HEK human P2X4 cell line, photina luminescence, agonist Bz-ATP at EC50, average; for Emax: read-out: human P2X4 Assay B avg Efficacy
Outline: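 Recombinant cell line constitutively expressing human P2X4 and mitochondrial photina photoprotein, reconstituted with coelenterazine. Receptor stimulated with Bz-ATP at EC50; calcium influx read immediately as luminescence.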

NS(=O)(=O)c1cc(NC(=O)Cc2cccc(F)c2Cl)c(Cl)cc1Oc1cccc(Cl)c1 [Example 083, N-[2-chloro-4-(3-chlorophenoxy)-5-sulfamoylphenyl]-2-(2-chloro-3-fluorophenyl)acetamide]
IC50 [1]: > 25000 nM | Emax [1]: 39% | Emax [2]: 35%

NS(=O)(=O)c1cc(NC(=O)Cc2cc(Br)ccc2Cl)ccc1Oc1cccc(Cl)c1 [Example 117, 2-(5-Bromo-2-chlorophenyl)-N-[4-(3-chlorophenoxy)-3-sulfamoylphenyl]acetamide]
IC50 [1]: 43 nM | Emax [1]: 94% | IC50 [2]: 468 nM | Emax [2]: 61%

NS(=O)(=O)c1cc(NC(=O)Cc2cc(F)ccc2Cl)cc(F)c1Oc1cccc(Cl)c1 [Example 292, 2-(2-Chloro-5-fluorophenyl)-N-[4-(3-chlorophenoxy)-3-fluoro-5-sulfamoyl-phenyl]acetamide]
IC50 [1]: 15100 nM | Emax [1]: 69%

NS(=O)(=O)c1cc(NC(=O)Cc2ccccc2Cl)ccc1OCC1(Cl)CCOCC1 [Example 267, 2-(2-Chlorophenyl)-N-{4-[(4-chlorotetrahydro-2H-pyran-4-yl)methoxy]-3-sulfamoylphenyl}acetamide]
IC50 [1]: 4440 nM | Emax [1]: 76%

NS(=O)(=O)c1cc(NC(=O)Cc2ccccc2C(F)(F)F)cnc1Oc1cccc(Cl)c1 [Example 294, N-[6-(3-Chlorophenoxy)-5-sulfamoylpyridin-3-yl]-2-[2-(trifluoromethyl)phenyl]-acetamide]
IC50 [1]: 107 nM | Emax [1]: 84%

NS(=O)(=O)c1cc(NC(=O)Cc2ccccc2C(F)F)cnc1Oc1cccc(Cl)c1 [Example 295, N-[6-(3-Chlorophenoxy)-5-sulfamoylpyridin-3-yl]-2-[2-(difluoromethyl)phenyl]-acetamide]
IC50 [1]: 155 nM | Emax [1]: 85%

NS(=O)(=O)c1cc(NC(=O)Cc2ccccc2F)cc(F)c1Oc1cccc(Cl)c1 [Example 289, N-[4-(3-Chlorophenoxy)-3-fluoro-5-sulfamoylphenyl]-2-(2-fluorophenyl)acetamide]
IC50 [1]: > 25000 nM | Emax [1]: 34%

NS(=O)(=O)c1cc(NC(=O)Cc2ccccc2Cl)ccc1OCC1COCCO1 (centres unmarked) [Example 268, 2-(2-Chlorophenyl)-N-[4-(1,4-dioxan-2-ylmethoxy)-3-sulfamoylphenyl]acetamide]
Emax [1]: 77%

CC1(C)CC(COc2ccc(NC(=O)Cc3ccccc3Cl)cc2S(N)(=O)=O)CCO1 (centres unmarked) [Example 265, 2-(2-Chlorophenyl)-N-{4-[(2,2-dimethyltetrahydro-2H-pyran-4-yl)methoxy]-3-sulfamoylphenyl}acetamide]
IC50 [1]: 416 nM | Emax [1]: 74%

NS(=O)(=O)c1cc(NC(=O)Cc2ccccc2Cl)ccc1OC[C@H]1[C@@H]2COC[C@@H]21 [Example 266, 2-(2-Chlorophenyl)-N-{4-[(1R,5S,6r)-3-oxabicyclo[3.1.0]hex-6-ylmethoxy]-3-sulfamoylphenyl}acetamide]
IC50 [1]: 63 nM | Emax [1]: 89%

NS(=O)(=O)c1cc(NC(=O)Cc2c(F)cc(F)cc2Cl)ccc1Oc1cccc(Cl)c1 [Example 259, 2-(2-Chloro-4,6-difluorophenyl)-N-[4-(3-chlorophenoxy)-3-sulfamoylphenyl]acetamide]
IC50 [1]: 145 nM | Emax [1]: 76%

NS(=O)(=O)c1cc(NC(=O)Cc2ccc(O)cc2)ccc1Oc1cccc(Cl)c1 [Example 256, N-[4-(3-Chlorophenoxy)-3-sulfamoylphenyl]-2-(4-hydroxyphenyl)acetamide]
IC50 [1]: 19 nM | Emax [1]: 75%

[2H]c1c([2H])c(Oc2ccc(NC(=O)Cc3ccccc3Cl)cc2S(N)(=O)=O)c([2H])c([2H])c1Cl [Example 262, 2-(2-Chlorophenyl)-N-(4-{[4-chloro(^2H4)phenyl]oxy}-3-sulfamoylphenyl)acetamide]
IC50 [1]: 42 nM | Emax [1]: 54%

NS(=O)(=O)c1cc(NC(=O)Cc2ccccc2F)cnc1Oc1cccc(Cl)c1 [Example 293, N-[6-(3-Chlorophenoxy)-5-sulfamoylpyridin-3-yl]-2-(2-fluorophenyl)acetamide]
IC50 [1]: 72 nM | Emax [1]: 67%

COc1cc(C)cc(Cl)c1CC(=O)Nc1ccc(Oc2cccc(Cl)c2)c(S(N)(=O)=O)c1 [Example 257, 2-(2-Chloro-6-methoxy-4-methylphenyl)-N-[4-(3-chlorophenoxy)-3-sulfamoylphenyl]acetamide]
IC50 [1]: 355 nM | Emax [1]: 85%

NS(=O)(=O)c1cc(NC(=O)Cc2ccc(F)cc2Cl)ccc1OCC1CCOCC1 [Example 282, 2-(2-Chloro-4-fluorophenyl)-N-[3-sulfamoyl-4-(tetrahydro-2H-pyran-4-ylmethoxy)phenyl]acetamide]
Emax [1]: 82%

CC(C(=O)Nc1ccc(Oc2cccc(Cl)c2)c(S(N)(=O)=O)c1)c1c(Cl)cccc1Cl (centres unmarked) [Example 260, N-[4-(3-Chlorophenoxy)-3-sulfamoylphenyl]-2-(2,6-dichlorophenyl)propanamide]
IC50 [1]: 2490 nM | Emax [1]: 90%

NS(=O)(=O)c1cc(NC(=O)Cc2ccccc2Cl)ccc1Oc1ccc(C(F)(F)F)nc1 [Example 283, 2-(2-Chlorophenyl)-N-(3-sulfamoyl-4-{[6-(trifluoromethyl)pyridin-3-yl]oxy}phenyl)-acetamide]
IC50 [1]: 8050 nM | Emax [1]: 62%

NS(=O)(=O)c1cc(NC(=O)Cc2ccccc2Cl)ccc1OCC1(O)CCCCC1 [Example 288, 2-(2-Chlorophenyl)-N-{4-[(1-hydroxycyclohexyl)methoxy]-3-sulfamoylphenyl}-acetamide]
IC50 [1]: 988 nM | Emax [1]: 57%

[2H]c1c([2H])c([2H])c(Oc2ccc(NC(=O)Cc3ccccc3Cl)cc2S(N)(=O)=O)c([2H])c1[2H] [Example 261, 2-(2-Chlorophenyl)-N-{4-[(^2H5)phenyloxy]-3-sulfamoylphenyl}acetamide]
Emax [1]: 89%

NS(=O)(=O)c1cc(NC(=O)Cc2ccccc2Cl)ccc1OCC1(O)CCC(F)(F)CC1 [Example 287, 2-(2-Chlorophenyl)-N-{4-[(4,4-difluoro-1-hydroxycyclohexyl)methoxy]-3-sulfamoyl-phenyl}acetamide]
IC50 [1]: 187 nM | Emax [1]: 58%

[2H]c1c([2H])c([2H])c(Oc2ccc(NC(=O)Cc3ccccc3Cl)cc2S(N)(=O)=O)c(Cl)c1[2H] [Example 263, 2-(2-Chlorophenyl)-N-(4-{[2-chloro(^2H4)phenyl]oxy}-3-sulfamoylphenyl)acetamide]
Emax [1]: 95%

NS(=O)(=O)c1cc(NC(=O)Cc2ccccc2Cl)ccc1Oc1cc(C(F)(F)F)c(Cl)cn1 [Example 284, 2-(2-Chlorophenyl)-N-(4-{[5-chloro-4-(trifluoromethyl)pyridin-2-yl]oxy}-3-sulfamoyl-phenyl)acetamide]
IC50 [1]: 10900 nM | Emax [1]: 82%

NS(=O)(=O)c1cc(NC(=O)Cc2cc(F)ccc2Cl)cnc1Oc1cccc(Cl)c1 [Example 296, 2-(2-Chloro-5-fluorophenyl)-N-[6-(3-chlorophenoxy)-5-sulfamoylpyridin-3-yl]-acetamide]
IC50 [1]: 59 nM | Emax [1]: 78%

NS(=O)(=O)c1cc(NC(=O)Cc2ccccc2C(F)F)cc(F)c1Oc1cccc(Cl)c1 [Example 290, N-[4-(3-Chlorophenoxy)-3-fluoro-5-sulfamoylphenyl]-2-[2-(difluoromethyl)-phenyl]acetamide]
IC50 [1]: 16000 nM | Emax [1]: 66%

NS(=O)(=O)c1cc(NC(=O)Cc2ccccc2Cl)cc(F)c1Oc1cccc(Cl)c1 [Example 291, N-[4-(3-Chlorophenoxy)-3-fluoro-5-sulfamoylphenyl]-2-(2-chlorophenyl)acetamide]
IC50 [1]: 10500 nM and > 25000 nM | Emax [1]: 57%

NS(=O)(=O)c1cc(NC(=O)Cc2ccccc2Cl)ccc1Oc1cnc(Cl)c(F)c1 [Example 286, N-{4-[(6-Chloro-5-fluoropyridin-3-yl)oxy]-3-sulfamoylphenyl}-2-(2-chlorophenyl)-acetamide]
IC50 [1]: 237 nM | Emax [1]: 55%
